Assay results as given in patent US20210254056A1, “IDENTIFICATION AND TARGETED MODULATION OF GENE SIGNALING NETWORKS” (CAMP4 THERAPEUTICS CORPORATION, priority 2017, published 2021).

Tested on: hepatocytes
Assay: RNA-seq of hepatocytes treated with Phase III failure compounds
Conditions: hepatocytes
Experimental: RNA-seq was performed to determine the effects of the compounds on hepatocytes.
Significance was determined by the criteria of FPKM≥0.5, a log 2(fold-change)≥1, and a […].

CCC(CC)[C@H](NC(C)=O)[C@@H]1[C@H](O)[C@@H](C(=O)O)C[C@H]1NC(=N)N.O.O.O [peramivir (trihydrate), peramivir]
RNA-seq results, GPD1 expression (gene GPD1): 0.37 | RNA-seq results: GPD1 expression (gene GPD1): 0 | RNA-seq results, GPHN expression (gene GPHN): −0.14 | RNA-seq results: GPHN expression (gene GPHN): 0.06 | RNA-seq results, GTPBP3 expression (gene GTPBP3): 0.32 | RNA-seq results: GTPBP3 expression (gene GTPBP3): 0.07 | RNA-seq results, GUSB expression (gene GUSB): −0.26 | RNA-seq results: GUSB expression (gene GUSB): 0.23 | RNA-seq results, GYG1 expression (gene GYG1): −0.32 | RNA-seq results: GYG1 expression (gene GYG1): 0.02 | RNA-seq results, GYS1 expression (gene GYS1): 0.05 | RNA-seq results: GYS1 expression (gene GYS1): 0.12 | RNA-seq results, GYS2 expression (gene GYS2): −0.03 | RNA-seq results: GYS2 expression (gene GYS2): −0.13 | RNA-seq results, H6PD expression (gene H6PD): 0.18 | RNA-seq results: H6PD expression (gene H6PD): −0.01 | RNA-seq results, H19 expression (gene H19): −0.21 | RNA-seq results: H19 expression (gene H19): 0.34 | RNA-seq results, HAL expression (gene HAL): −0.09 | RNA-seq results: HAL expression (gene HAL): −0.17 | RNA-seq results, HAX1 expression (gene HAX1): −0.12 | RNA-seq results: HAX1 expression (gene HAX1): 0.15 | RNA-seq results, HBA1 expression (gene HBA1): 1.07 | RNA-seq results: HBA1 expression (gene HBA1): 0.04 | RNA-seq results, HBB expression (gene HBB): 0.07 | RNA-seq results: HBB expression (gene HBB): −0.54 | RNA-seq results, HGD expression (gene HGD): −0.10 | RNA-seq results: HGD expression (gene HGD): −0.18 | RNA-seq results, HLA-B expression (gene HLA-B): 0.05 | RNA-seq results: HLA-B expression (gene HLA-B): 0.18 | RNA-seq results, HMBS expression (gene HMBS): −0.09 | RNA-seq results: HMBS expression (gene HMBS): 0 | RNA-seq results, HMGCR expression (gene HMGCR): −0.11 | RNA-seq results: HMGCR expression (gene HMGCR): −0.29 | RNA-seq results, HMGCS2 expression (gene HMGCS2): −0.21 | RNA-seq results: HMGCS2 expression (gene HMGCS2): −0.28 | RNA-seq results, HMOX1 expression (gene HMOX1): 0.22 | RNA-seq results: HMOX1 expression (gene HMOX1): 1.28 | RNA-seq results, HNF1A expression (gene HNF1A): 0.33 | RNA-seq results: HNF1A expression (gene HNF1A): 0.11 | RNA-seq results, HNF1B expression (gene HNF1B): −0.02 | RNA-seq results: HNF1B expression (gene HNF1B): −0.15 | RNA-seq results, HNF4A expression (gene HNF4A): 0.30 | RNA-seq results: HNF4A expression (gene HNF4A): −0.01 | RNA-seq results, HOGA1 expression (gene HOGA1): 0.80 | RNA-seq results: HOGA1 expression (gene HOGA1): 0.01 | RNA-seq results, HPD expression (gene HPD): 0.10 | RNA-seq results: HPD expression (gene HPD): 0.06 | RNA-seq results, HPGD expression (gene HPGD): −0.69 | RNA-seq results: HPGD expression (gene HPGD): −0.7 | RNA-seq results, HPS4 expression (gene HPS4): −0.04 | RNA-seq results: HPS4 expression (gene HPS4): 0.26 | RNA-seq results, HPS5 expression (gene HPS5): −0.12 | RNA-seq results: HPS5 expression (gene HPS5): −0.18 | RNA-seq results, HPS6 expression (gene HPS6): 0.31 | RNA-seq results: HPS6 expression (gene HPS6): 0.23 | RNA-seq results, HPX expression (gene HPX): −0.17 | RNA-seq results: HPX expression (gene HPX): 0.2 | RNA-seq results, HRAS expression (gene HRAS): −0.15 | RNA-seq results: HRAS expression (gene HRAS): 0.31 | RNA-seq results, HRSP12 expression (gene HRSP12): −0.47 | RNA-seq results: HRSP12 expression (gene HRSP12): −0.3 | RNA-seq results, HSD3B7 expression (gene HSD3B7): −0.05 | RNA-seq results: HSD3B7 expression (gene HSD3B7): 0.26 | RNA-seq results, HSD17B10 expression (gene HSD17B10): −0.09 | RNA-seq results: HSD17B10 expression (gene HSD17B10): 0.15 | RNA-seq results: HYLS1 expression (gene HYLS1): −0.60 | RNA-seq results: ID1 expression (gene ID1): 0.13 | RNA-seq results: IDH1 expression (gene IDH1): −0.29 | RNA-seq results: IDH2 expression (gene IDH2): −0.11 | RNA-seq results: IDUA expression (gene IDUA): 0.23 | RNA-seq results: IFIH1 expression (gene IFIH1): −0.40 | RNA-seq results: IFNAR2 expression (gene IFNAR2): −0.51 | RNA-seq results: IFT27 expression (gene IFT27): −0.11 | RNA-seq results: IFT80 expression (gene IFT80): 0.00 | RNA-seq results: IFT122 expression (gene IFT122): −0.15 | RNA-seq results: IFT140 expression (gene IFT140): 0.44 | RNA-seq results: IFT172 expression (gene IFT172): 0.36 | RNA-seq results: IGFALS expression (gene IGFALS): 0.33 | RNA-seq results: IKBKG expression (gene IKBKG): 0.48 | RNA-seq results: IL1RN expression (gene IL1RN): −0.20 | RNA-seq results: IL2RG expression (gene IL2RG): −0.08 | RNA-seq results: INSR expression (gene INSR): 0.01 | RNA-seq results: INVS expression (gene INVS): −0.15 | RNA-seq results: ISYNA1 expression (gene ISYNA1): 0.20 | RNA-seq results: ITGB3 expression (gene ITGB3): 0.02 | RNA-seq results: IYD expression (gene IYD): −0.15 | RNA-seq results: JAG1 expression (gene JAG1): 0.14 | RNA-seq results: JAK2 expression (gene JAK2): −0.26 | RNA-seq results: KCTD7 expression (gene KCTD7): 0.26 | RNA-seq results: KCTD11 expression (gene KCTD11): 0.53 | RNA-seq results: KHK expression (gene KHK): 0.13 | RNA-seq results: KIAA0586 expression (gene KIAA0586): −0.32 | RNA-seq results: KMT2D expression (gene KMT2D): 0.57 | RNA-seq results: KPTN expression (gene KPTN): 0.03 | RNA-seq results: KRIT1 expression (gene KRIT1): −0.32 | RNA-seq results: KRT18 expression (gene KRT18): 0.14 | RNA-seq results: KYNU expression (gene KYNU): −0.28 | RNA-seq results: LAMB2 expression (gene LAMB2): 0.14 | RNA-seq results: LCAT expression (gene LCAT): 0.18 | RNA-seq results: LDHB expression (gene LDHB): −0.23 | RNA-seq results: LDLR expression (gene LDLR): 0.23 | RNA-seq results: LDLRAP1 expression (gene LDLRAP1): 0.03 | RNA-seq results: LIPC expression (gene LIPC): −0.23 | RNA-seq results: LIPT1 expression (gene LIPT1): −0.63 | RNA-seq results: LMNB2 expression (gene LMNB2): 0.36 | RNA-seq results: LPA expression (gene LPA): 0.04 | RNA-seq results: LPIN1 expression (gene LPIN1): −0.08 | RNA-seq results: LPIN2 expression (gene LPIN2): 0.08 | RNA-seq results: LRBA expression (gene LRBA): −0.14 | RNA-seq results: LRP5 expression (gene LRP5): 0.14 | RNA-seq results: LYRM4 expression (gene LYRM4): −0.40 | RNA-seq results: LYST expression (gene LYST): −0.05 | RNA-seq results: MAN1A1 expression (gene MAN1A1): −0.36 | RNA-seq results: MAN2B1 expression (gene MAN2B1): 0.14 | RNA-seq results: MAOB expression (gene MAOB): −0.07 | RNA-seq results: MAT1A expression (gene MAT1A): 0.14 | RNA-seq results: MBL2 expression (gene MBL2): −0.25
